In the supplement of paper PMC10307832:

What was measured:
Assay in all cases: relative viability (nuclei count vs DMSO), 5 days (fraction); higher = more cells survive
Linsitinib + Palbociclib = compound: C[C@]1(O)C[C@@H](c2nc(-c3ccc4ccc(-c5ccccc5)nc4c3)c3c(N)nccn32)C1 [Linsitinib] + CC(=O)c1c(C)c2cnc(Nc3ccc(N4CCNCC4)cn3)nc2n(C2CCCC2)c1=O [Palbociclib] (partner 0.5 µM)
Summary of the method: (§1)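 Relative viability divides the nuclei count in treated wells by that in vehicle wells. Lung cancer cell lines were seeded in 1536-well plates, dosed by pin tool the next day, and fixed and stained after 5 days in one step with final 0.05% Triton X-100, 1% formaldehyde and 1 ug/ml Hoechst. Dosing was a single drug or a fixed anchor-drug dose plus five library-drug doses (not always all listed) in √10 steps, and values are medians of duplicate plates imaged at 4×.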

Ispinesib + Foretinib = compound: Cc1ccc(C(=O)N(CCCN)[C@@H](c2nc3cc(Cl)ccc3c(=O)n2Cc2ccccc2)C(C)C)cc1 [Ispinesib] + COc1cc2c(Oc3ccc(NC(=O)C4(C(=O)Nc5ccc(F)cc5)CC4)cc3F)ccnc2cc1OCCCN1CCOCC1 [Foretinib] (partner 0.25 µM)
Summary of the method: as §1

Ispinesib + Luminespib = compound: Cc1ccc(C(=O)N(CCCN)[C@@H](c2nc3cc(Cl)ccc3c(=O)n2Cc2ccccc2)C(C)C)cc1 [Ispinesib] + CCNC(=O)c1noc(-c2cc(C(C)C)c(O)cc2O)c1-c1ccc(CN2CCOCC2)cc1 [Luminespib] (partner 0.01 µM)
Summary of the method: as §1

Ispinesib + Decitabine = compound: Cc1ccc(C(=O)N(CCCN)[C@@H](c2nc3cc(Cl)ccc3c(=O)n2Cc2ccccc2)C(C)C)cc1 [Ispinesib] + Nc1ncn([C@H]2C[C@H](O)[C@@H](CO)O2)c(=O)n1 [Decitabine] (partner 2 µM)
Summary of the method: as §1

Row | Cell Line | relative viability (Linsitinib + Palbociclib; first compound 0.01 µM) | relative viability (Linsitinib + Palbociclib; first compound 0.03162 µM) | relative viability (Linsitinib + Palbociclib; first compound 0.1 µM) | relative viability (Linsitinib + Palbociclib; first compound 1 µM) | relative viability (Ispinesib + Foretinib; first compound 0.001 µM) | relative viability (Ispinesib + Foretinib; first compound 0.003162 µM) | relative viability (Ispinesib + Foretinib; first compound 0.01 µM) | relative viability (Ispinesib + Foretinib; first compound 0.03162 µM) | relative viability (Ispinesib + Foretinib; first compound 0.1 µM) | relative viability (Ispinesib + Luminespib; first compound 0.001 µM) | relative viability (Ispinesib + Luminespib; first compound 0.003162 µM) | relative viability (Ispinesib + Luminespib; first compound 0.01 µM) | relative viability (Ispinesib + Luminespib; first compound 0.03162 µM) | relative viability (Ispinesib + Luminespib; first compound 0.1 µM) | relative viability (Ispinesib + Decitabine; first compound 0.001 µM) | relative viability (Ispinesib + Decitabine; first compound 0.003162 µM) | relative viability (Ispinesib + Decitabine; first compound 0.01 µM) | relative viability (Ispinesib + Decitabine; first compound 0.03162 µM) | relative viability (Ispinesib + Decitabine; first compound 0.1 µM) | relative viability (Linsitinib + Palbociclib; first compound 0.3162 µM)
1 | LU99A | 0.392 | 0.432 | 0.434 | 0.36 | 0.835 | 0.858 | 0.814 | 0.55 | 0.428 | 0.242 | 0.333 | 0.247 | 0.199 | 0.218 | 0.868 | 1.1 | 1.02 | 0.674 | 0.727 | –
2 | LXF-289 | 0.565 | 0.62 | 0.607 | 0.614 | 0.911 | 0.978 | 1.09 | 0.894 | 0.895 | 0.622 | 0.794 | 0.743 | 0.556 | 0.617 | 0.359 | 0.388 | 0.387 | 0.404 | 0.349 | 0.493
3 | NCI-H23 | 0.519 | 0.415 | 0.415 | 0.313 | 1.05 | 1.03 | 1.17 | 0.934 | 0.299 | 0.205 | 0.202 | 0.199 | 0.195 | 0.197 | 0.27 | 0.326 | 0.304 | 0.309 | 0.213 | 0.326
4 | NCI-H522 | 1.01 | 0.83 | 1.04 | 0.977 | – | – | – | – | – | 1.02 | 1.1 | 1.17 | 0.922 | 1.11 | 0.662 | 0.649 | 0.751 | 0.687 | 0.673 | 0.673
5 | NCI-H596 | – | – | – | – | 0.87 | 0.859 | 0.791 | 0.795 | 0.434 | 1.01 | 0.954 | 1.07 | 1.06 | 0.609 | 1.02 | 1.89 | 1.15 | 1.02 | 0.885 | –
6 | NCI-H1299 | – | – | – | – | 1.14 | 1.13 | 1.14 | 1.09 | 0.584 | – | – | – | – | – | – | – | – | – | – | –
7 | NCI-H1563 | – | – | – | – | 0.895 | 0.879 | 0.984 | 0.845 | 0.798 | 0.506 | 0.462 | 0.523 | 0.523 | 0.55 | – | – | – | – | – | –
8 | NCI-H1623 | – | – | – | – | 0.929 | 1.03 | 0.887 | 0.823 | 0.62 | 0.638 | 0.487 | 0.578 | 0.526 | 0.455 | – | – | – | – | – | –
9 | NCI-H1648 | 0.238 | 0.304 | 0.252 | 0.212 | – | – | – | – | – | – | – | – | – | – | 0.532 | 0.484 | 0.474 | 0.614 | 0.343 | 0.279
10 | NCI-H1703 | – | – | – | – | 0.331 | 0.372 | 0.346 | 0.16 | 0.157 | – | – | – | – | – | – | – | – | – | – | –
11 | NCI-H1792 | – | 0.712 | 0.527 | 0.375 | – | – | – | – | – | 0.821 | 0.435 | 0.705 | 0.443 | 0.471 | 0.548 | 0.546 | 0.725 | 0.484 | 0.238 | 0.599
12 | NCI-H2228 | 0.809 | 0.62 | 0.619 | 0.513 | 0.909 | 0.957 | 1.24 | 1 | 0.322 | 0.121 | 0.14 | 0.228 | 0.127 | 0.159 | – | – | – | – | – | 0.546
